From patent US12012396B2, “HDAC inhibitor solid state forms” (Viracta Subsidiary, Inc., priority 2020, dated 2024)
Entries after “also recorded” stand apart in the source; their conditions may differ.

Assays:
Type in all cases: physicochemical
[1] = Static storage stability at elevated temperature/humidity (XRPD, HPLC purity)
Protocol: XRPD diffractograms were collected on a Bruker D8 diffractometer using Cu Kα, radiation (40 kV, 40 mA) and a 0-20 goniometer fitted with a Ge monochromator. The incident beam passes through a 2.0 mm divergence slit followed by a 0.2 mm anti-scatter slit and knife edge. The diffracted beam passes through an 8.0 mm receiving slit with 2.5° Soller slits followed by the Lynxeye Detector. The software used for data collection and analysis was Diffrac Plus XRD Commander and Diffrac Plus EVA respectively.
XRPD diffractograms were collected on a PANalytical Empyrean diffractometer using Cu Kα, radiation (45 kV, 40 mA) in transmission geometry. A 0.5° slit, 4 mm mask and 0.04 rad Soller slits with a focusing mirror were used on the incident beam. A PIXcel3D detector, placed on the diffracted beam, was fitted with a receiving slit and 0.04 rad Soller slits. The software used for data collection was X'Pert Data Collector using X'Pert Operator Interface. The data were analyzed and presented using Diffrac Plus EVA or HighScore Plus.
Purity analysis was performed on an AgilentHP1100/Infinity 111260 series system equipped with a diode array detector and using OpenLAB software.

[2] = Competitive slurries of anhydrous and hydrated forms in different water activity
Protocol: Competitive slurries of the anhydrous and hydrated forms in different water activity at 50° C. and 5° C. were used to determine the thermodynamic stability relationships.

[3] = Gravimetric Vapour Sorption (GVS)
Protocol: Sorption isotherms were obtained using a SMS DVS Intrinsic moisture sorption analyser, controlled by DVS Intrinsic Control software. The sample temperature was maintained at 25° C. by the instrument controls. The humidity was controlled by mixing streams of dry and wet nitrogen, with a total flow rate of 200 ml/min. The relative humidity was measured by a calibrated Rotronic probe (dynamic range of 1.0-100% RH), located near the sample. The weight change, (mass relaxation) of the sample as a function of % RH was constantly monitored by a microbalance (accuracy ±0.005 mg). Typically, 20-30 mg of sample was placed in a tared mesh stainless steel basket under ambient conditions. The sample was loaded and unloaded at 40% RH and 25° C. (typical room conditions). A moisture sorption isotherm was performed as outlined below (2 scans per complete cycle). The standard isotherm was performed at 25° C. at 10% RH intervals over a 0-90% RH range. Typically, a double cycle (4 scans) was carried out. Data analysis was carried out within Microsoft Excel using the DVS Analysis Suite. [table]

[4] = Thermodynamic aqueous solubility; details: water, after 24 hours equilibration
Protocol: Aqueous solubility was determined by suspending sufficient compound in 0.5 ml deionized water to give a maximum final concentration of 40 mg/mi of the parent free-form of the compound. The suspension was equilibrated at 25° C., on a Heidolph plate shaker set to 750 rpm for 24 hours. After equilibration, the appearance was noted and the pH of the saturated solution was measured. Samples forming suspensions were centrifuged for 4 min at 13,500 rpm. Samples were then filtered through a glass fiber C filter (particle retention 1.2 μm), before dilution with H2O as appropriate.
Quantitation was by HPLC (see Table 2 for parameters) with reference to a standard solution of approximately 0.15 mg/ml in DMSO. Different volumes of the standard, diluted and undiluted sample solutions were injected. The solubility was calculated using the peak areas determined by integration of the peak found at the same retention time as the principal peak in the standard injection. Analysis was performed on an AgilentHPl 100/Infinity II 1260 series system equipped with a diode array detector and using OpenLAB software.

physchem = details: thermodynamic from solid
Source text: There was insufficient residue to characterize these further.

[5] = 7 days / 1 week at 25° C./97% RH
[6] = 7 days / 1 week at 40° C./75% RH

In the case of `O=C(NO)c1cnc(N2C[C@@H]3[C@H](C2)[C@H]3NCc2ccc3cc(F)ccc3n2)nc1` [Mesylate Form 1, N-hydroxy 2-{6-[(6-fluoro-quinolin-2-ylmethyl)-amino]-3-aza-bicyclo[3.1.0]hex-3-yl}pyrimidine-5-carboxamide], the “Purity after static storage” value ([1]; 14 weeks at 25° C./97% RH) is reported as 93.5%, the “Solid form by XRPD after static storage” value ([1]; 14 weeks at 25° C./97% RH) is reported as “Mesylate Form 1” and the “Purity after static storage” value ([1]; 14 weeks at 40° C./75% RH) is reported as “Form 2 (94.7% purity)”. For the same molecule, the “HPLC purity after static storage” value [1, 5] was “no significant drop in purity”, the “Solid form by XRPD after static storage” value [1, 5] was “unchanged; also recorded: No change, Mesylate Form 1” and the “HPLC purity after static storage” value [1, 6] was “no significant drop in purity”. For the same molecule, the “Solid form by XRPD after static storage” value [1, 6] was “unchanged; also recorded: No change, Mesylate Form 1”, the “Water activity up to which the form was the most stable” value ([2]; competitive slurries at 5° C.) was at least 0.3 aw and the “Water activity up to which the form was the most stable” value ([2]; competitive slurries at 50° C.) was 0.6 aw. For the same molecule, the “Hygroscopicity by GVS” value ([3]; 25° C.) was “RH: Slightly hygroscopic”, the “XRPD post-GVS” value ([3]; residue after GVS) was “no change; also recorded: XRPD remains unchanged” and the “pH of saturated solution” value [4] was “(pH = 3.2)”. For the same molecule, the solubility thermodynamic (physchem; fassgf or other biorelevant, Thermodynamic solubility in FaSSGF) was 21000 µg/mL, the solubility thermodynamic (physchem; fassif, Thermodynamic solubility in FaSSIF) was 1900 µg/mL and the solubility thermodynamic (physchem; fessif, Thermodynamic solubility in FeSSIF) was 340 µg/mL.
